Literature values in patent publication US20070178172A1, “Composition for reducing blood lipids” (MAXLUCK BIOTECHNOLOGY CORP., priority 2004, published 2007).

System: obesity mouse
Settings: Cefalu et al. 2002

For chromium picolinate, the “effect on blood lipids” value is given as “could reduce the blood lipids”.
